Results published in ChEMBL document CHEMBL1201862, “PubChem BioAssay data set” (2004).
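Five concentrations, 48 hours, 96-well plates. GI50 = concentration required for 50% inhibition of growth.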 Active and inactive are the calls of the source. Cut-off read from the data, not from the text of the source: active = GI50 up to about 1.1 µM and inactive = higher.

Legend:
Assay in all cases: NCI tumour cell line growth inhibition, 48 h
[1] = tested on: A549
[2] = tested on: CCRF-CEM
[3] = tested on: COLO 205
[4] = tested on: HOP-92
[5] = tested on: M14
[6] = tested on: MDA-MB-231
[7] = tested on: MOLT-4
[8] = tested on: NCI-H23
[9] = tested on: NCI-H522
[10] = tested on: NCI/ADR-RES
[11] = tested on: OVCAR-3
[12] = tested on: OVCAR-8
[13] = tested on: PC-3
[14] = tested on: RXF 393
[15] = tested on: SF-295
[16] = tested on: SK-MEL-28
[17] = tested on: SK-OV-3
[18] = tested on: SNB-19
[19] = tested on: UACC-257
[20] = tested on: UO-31

SMILES	GI50 [1]	GI50 [2]	GI50 [3]	GI50 [4]	GI50 [5]	GI50 [6]	GI50 [7]	GI50 [8]	GI50 [9]	GI50 [10]	GI50 [11]	GI50 [12]	GI50 [13]	GI50 [14]	GI50 [15]	GI50 [16]	GI50 [17]	GI50 [18]	GI50 [19]	GI50 [20]
CCN(CC)CC(=O)Nc1c(C(N)=O)nnn1Cc1cc(Cl)c(C(=O)c2ccc(Cl)cc2)c(Cl)c1	22.3 µM (inactive)	18 µM (inactive)	16.9 µM (inactive)	20.7 µM (inactive)	16.9 µM (inactive)	16.9 µM (inactive)	16.3 µM (inactive)	14.6 µM (inactive)	18.1 µM (inactive)	15.8 µM (inactive)	16.9 µM (inactive)	17.7 µM (inactive)	16.8 µM (inactive)	10.4 µM (inactive)	17.4 µM (inactive)	18.5 µM (inactive)	21.6 µM (inactive)	34.9 µM (inactive)	18.1 µM (inactive)	13.7 µM (inactive)
CC[C@@]1(OC(=O)C(N)CCC(=O)O)C(=O)OCc2c1cc1n(c2=O)Cc2cc3ccccc3nc2-1 (stereo not given in full)	0.0348 µM (active)	< 0.01 µM (active)	0.667 µM (active)	0.615 µM (active)	0.0347 µM (active)	1.63 µM (inactive)	0.0106 µM (active)	0.0345 µM (active)	0.0536 µM (active)	< 0.01 µM (active)	0.417 µM (active)	0.117 µM (active)	0.194 µM (active)	0.147 µM (active)	0.0213 µM (active)	1.35 µM (inactive)	0.0553 µM (active)	0.0541 µM (active)	0.228 µM (active)	0.0493 µM (active)
O=c1c(F)cn(Cc2c(Cl)cccc2Cl)c(=O)n1Cc1c(Cl)cccc1Cl	> 31.6 µM (inactive)	27 µM (inactive)	19.9 µM (inactive)	20.3 µM (inactive)	> 31.6 µM (inactive)	> 31.6 µM (inactive)	25.6 µM (inactive)	27.7 µM (inactive)	16 µM (inactive)	> 31.6 µM (inactive)	> 31.6 µM (inactive)	> 31.6 µM (inactive)	17.3 µM (inactive)	19.7 µM (inactive)	> 31.6 µM (inactive)	> 31.6 µM (inactive)	> 31.6 µM (inactive)	> 100 µM (inactive)	> 31.6 µM (inactive)	18.1 µM (inactive)
Cc1c/c(=N\c2ccc3c(c2)c(N)cc(C)[n+]3C)nc(N)n1C	> 100 µM (inactive)	> 100 µM (inactive)	> 100 µM (inactive)	> 100 µM (inactive)	> 100 µM (inactive)	> 100 µM (inactive)	> 100 µM (inactive)	> 100 µM (inactive)	> 100 µM (inactive)	> 100 µM (inactive)	> 100 µM (inactive)	86.3 µM (inactive)	> 100 µM (inactive)	> 100 µM (inactive)	> 100 µM (inactive)	> 100 µM (inactive)	> 100 µM (inactive)	> 100 µM (inactive)	> 100 µM (inactive)	> 100 µM (inactive)
CC(=O)C1C(=O)C(=O)N(c2ccc([N+](=O)[O-])cc2[N+](=O)[O-])C1=O (stereo not given)	> 100 µM (inactive)	> 100 µM (inactive)	> 100 µM (inactive)	> 100 µM (inactive)	> 100 µM (inactive)	> 100 µM (inactive)	> 100 µM (inactive)	> 100 µM (inactive)	> 100 µM (inactive)	> 100 µM (inactive)	> 100 µM (inactive)	> 100 µM (inactive)	> 100 µM (inactive)	1.96 µM (inactive)	> 100 µM (inactive)	> 100 µM (inactive)	83.6 µM (inactive)	> 100 µM (inactive)	> 100 µM (inactive)	59.3 µM (inactive)
